The values that follow are results of earlier work, collected in patent publication US20080242648A1, “COMBINATION OF ERa+ LIGANDS AND HISTONE D[…] THE TREATMENT OF CANCER” (Syndax Pharmaceuticals, Inc., a California Corporation, priority 2006, published 2008).

For the series, the system named is breast cancer. The settings on record: second line setting, post-menopausal women.

As for “7-alpha-[9-(4,4,5,5,5-penta fluoropentylsulphinyl)nonyl]estra-1,3,5-(10)-triene-3,17-beta-diol [Faslodex]”, the response rate is recorded as 17-20% and the time to progression is listed as 5.4-5.5 month.
